According to the METLIN SMRT retention time set (Domingo-Almenara et al. 2019):

Assay: gradient 5% acetonitrile 3 min, to 50% in 2 min, to 85% in 15 min, held 3 min, 100 µL/min
Settings: column: Zorbax Extend-C18 2.1 x 50 mm; eluents: water / acetonitrile, 0.1% formic acid
Method in brief: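 Pure standards were analyzed in mixtures of ~100 molecules using HPLC coupled to a quadrupole time-of-flight mass spectrometer, in both positive and negative ionization mode. Separation used a Zorbax Extend-C18 column (2.1 × 50 mm, 1.8 μm) at 100 μL/min, with water and acetonitrile each containing 0.1% formic acid. Dead and dwell volumes were 40 μL and 900 μL, and data were collected over 3 months. Retention time was read from computationally picked adduct peaks, each inspected manually.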

O=C(Cn1cc(-c2ccccc2)c2ncnc(N3CCOCC3)c21)NC1CCCCC1
RP-LC retention time: 753 s

COC(=O)CC1=CC(SCC(=O)Nc2ccc(Cl)cc2F)=Nc2ccccc2N1
RP-LC retention time: 910 s

O=C(c1ccoc1)N1CC(n2cc(COCc3ccccc3)nn2)C1
RP-LC retention time: 734 s

Cc1nc(CSc2cc(-c3ccccc3)ncn2)cs1
RP-LC retention time: 907 s

Cc1cc(N2CCCC2)n2nc(CN3CCN(c4ccccc4F)CC3)nc2n1
RP-LC retention time: 622 s

Cc1ccc(CNS(=O)(=O)c2ccc(-c3c(C)noc3C)cc2)o1
RP-LC retention time: 893 s

Cc1cccc(S(=O)(=O)Nc2ccc(C3(C(=O)NCC4CCCO4)CC3)cc2)c1 (stereo not given)
RP-LC retention time: 828 s

Cc1ccc(-n2c(=O)n(CC(=O)N3CCCCC3)c3cccnc32)cc1
RP-LC retention time: 780 s

Cc1oc2c(c1C(=O)NCc1cccc(Br)c1)C1=NCCN1C=N2
RP-LC retention time: 654 s

CCC(=O)n1nc(C)c(S(=O)(=O)N2CCCCC2)c1C
RP-LC retention time: 1040 s

COc1cccc(NC(=O)[C@H]2[C@@H](c3cc(OC)c(OC)c(OC)c3)c3cc4c(cc3[C@@H](O)[C@@H]2CO)OCO4)c1
RP-LC retention time: 704 s

CCOc1ccc(CC(=O)N2C[C@@H]3C[C@H](NC(=O)c4ccccc4)[C@H]2C3)cc1
RP-LC retention time: 799 s

O=C(Cc1csc2nc(-c3cccc(Br)c3)cn12)N1CCN(c2ccccc2)CC1
RP-LC retention time: 1010 s

Cc1nc(-c2cc(S(=O)(=O)N3CCC(C(=O)N4CCc5ccccc54)CC3)c(C)s2)no1
RP-LC retention time: 1040 s

O=C(NCc1ccccc1)c1cc2sccc2n1Cc1ccc(F)cc1
RP-LC retention time: 1080 s

Cc1cccc(NC(=O)N2CCc3c(c(-c4nc(C5CC5)no4)nn3C)C2)c1
RP-LC retention time: 854 s

COc1ccc(-c2nc3cnccn3c2Nc2ccc(C(=O)NCc3ccco3)cc2)cc1OC
RP-LC retention time: 682 s

Cc1nc(NCCNC(=O)c2snnc2C)cc(-n2cccn2)n1
RP-LC retention time: 627 s

Cc1ccc(-c2cc3c(=O)n(Cc4nc(-c5ccccn5)no4)ccn3n2)cc1C
RP-LC retention time: 909 s

COc1ccc(Cc2nc3nccc(-c4ccc(F)cc4)n3n2)cc1
RP-LC retention time: 882 s

COc1ccc(C(=O)N2CCCC2c2nc(-c3cccc(C)c3)no2)cn1 (stereo not given)
RP-LC retention time: 947 s

OC[C@@H]1CN(Cc2ccc(OC(F)(F)F)cc2)C[C@H]1c1ccncc1
RP-LC retention time: 521 s

CCNc1cc(N2CCC(CCC(=O)NCc3cccs3)CC2)ncn1
RP-LC retention time: 627 s

Cc1noc(-c2cc(=O)n(CC(=O)Nc3ccc(F)c(F)c3)c3ccccc23)n1
RP-LC retention time: 890 s

COc1ccc(-c2nnc(-c3nc(N4CCC5(CC4)OCCO5)c4ccccc4n3)o2)cc1
RP-LC retention time: 936 s

CN(c1ncccc1CNc1nc(Nc2ccc3c(c2)CC(=O)N3)ncc1C(F)(F)F)S(C)(=O)=O
RP-LC retention time: 678 s

O=S(=O)(c1cccnc1)N1CCC(c2nnc(-c3ccc(F)cc3)o2)CC1
RP-LC retention time: 734 s

O=C(NCc1csc(C2CCCN(C(=O)c3cc(F)ccc3Cl)C2)n1)C1CC1 (stereo not given)
RP-LC retention time: 750 s

COc1ccc(-c2noc(C3CCCN3C(=O)c3ccoc3)n2)cc1 (stereo not given)
RP-LC retention time: 835 s

COc1cc(Cl)c(C)cc1NC(=O)CSc1ccc(N2CCCC(C(=O)NC3CC3)C2)nn1 (stereo not given)
RP-LC retention time: 774 s

CCCCOc1ccc(NC(=O)c2oc3ccc(F)cc3c2C)c2cccnc12
RP-LC retention time: 850 s

Cc1cc(-c2nnc(-c3ccccc3)o2)c(C)n1CC(=O)Nc1cccc(Cl)c1
RP-LC retention time: 1030 s

CCNC(=O)C1CCCN(c2nc3ncn(CC(=O)N4CCc5ccccc5C4)c(=O)c3s2)C1 (stereo not given)
RP-LC retention time: 690 s

CCc1ccc(CNC(=O)CCC(=O)N2CCCn3nc(C)cc32)cc1
RP-LC retention time: 666 s

COc1ccccc1C(=O)NC1CCN(c2cc(-c3cccs3)[nH]n2)C1 (stereo not given)
RP-LC retention time: 717 s

CCN1C(=O)COc2ccc(-c3noc(-c4ccc5cc[nH]c5c4)n3)cc21
RP-LC retention time: 1040 s

COc1cccc(NC(=O)C2CCN(S(=O)(=O)c3ccc4c(c3)CCCN4C(C)=O)CC2)c1
RP-LC retention time: 836 s

Cc1cc(C)cc(S(=O)(=O)N2CCC(n3cnc4ccc(C)cc4c3=O)CC2)c1
RP-LC retention time: 1010 s

CC(C)CCNC(=O)CN1C(=O)CCCc2cc(S(=O)(=O)N3CCC(C)CC3)ccc21
RP-LC retention time: 938 s

CSc1cccc(NC(=O)Cn2nc(C(=O)N3CCOCC3)cc2C2CC2)c1
RP-LC retention time: 742 s

CCN1CCCC1CNC(=O)CN1C(=O)CCn2nc(-c3cn(C)c4ccccc34)cc21 (stereo not given)
RP-LC retention time: 571 s

O=C(Nc1nccs1)C1CCN(C(=O)c2cc(-c3ccccc3)on2)CC1
RP-LC retention time: 732 s

O=C(Nc1nc(-c2ccccc2)cs1)NC1CCCCC1
RP-LC retention time: 991 s

O=C(NCc1ccccc1Cl)c1nc(Cn2c(=O)oc3ccccc32)no1
RP-LC retention time: 946 s

CN1C(=O)C2(CCN(C(=O)C3CCCCC3)CC2)c2ccccc21
RP-LC retention time: 899 s

CCSc1nc2ccc(NS(=O)(=O)c3ccc(CC)cc3)cc2s1
RP-LC retention time: 1120 s

Cc1ccc(F)c(-n2nnc(C(=O)O)c2-c2cccnc2)c1
RP-LC retention time: 642 s

CNC(=O)[C@H]1O[C@@H](n2cnc3c(N)ncnc32)C(O)[C@H]1O (stereo not given in full)
RP-LC retention time: 621 s

CCCN(CC1CCOC1)C(=O)Nc1ccccc1C(F)(F)F (stereo not given)
RP-LC retention time: 871 s

CCn1cc(-c2nc(C(=O)Nc3ccccc3C)cs2)c2cccnc21
RP-LC retention time: 1120 s

Cc1ccc(-c2nc3ccccn3c2CCC(=O)Nc2ccc(Br)cc2C)cc1
RP-LC retention time: 770 s

O=C(c1ccc2[nH]ccc2c1)N1CCN(C(=O)c2nnn3c2COC(c2ccccc2)C3)CC1 (stereo not given)
RP-LC retention time: 793 s

O=C(NCc1ccncc1)c1cc2cc(Cl)ccc2[nH]1
RP-LC retention time: 618 s

O=C(Cn1cccc(-c2nc(-c3ccc(F)cc3)no2)c1=O)NC1CCCCC1
RP-LC retention time: 834 s

CSc1cccc(N2C(=O)C3N=NN(Cc4nc(-c5ccc(Cl)cc5)no4)C3C2=O)c1 (stereo not given)
RP-LC retention time: 1070 s

Cc1ccc(Cl)cc1NC(=O)N1CCc2nc[nH]c2C1
RP-LC retention time: 612 s

CCCN1CCN(C(=O)c2csc(N3CCN(c4ccc(OC)cc4)CC3)n2)CC1
RP-LC retention time: 626 s

Cn1ncc(N2CCCC(CC(=O)NCc3cccs3)C2)cc1=O (stereo not given)
RP-LC retention time: 676 s

Cc1ccc2c(c1)N(S(C)(=O)=O)CCC(C(=O)Nc1ccccc1)O2 (stereo not given)
RP-LC retention time: 892 s

O=C(c1ccoc1)N1CCCC1c1nc(-c2cccc(C(F)(F)F)c2)no1 (stereo not given)
RP-LC retention time: 996 s

CN1C(=O)C2CCCCN2c2ccc(C(=O)N3CCC4(CC3)OCCO4)cc21 (stereo not given)
RP-LC retention time: 750 s

O=C(Cn1ccc2c(SCc3ccccc3)nccc21)N1CCN(c2ccccn2)CC1
RP-LC retention time: 577 s

O=C(O)CCC1CCCN(S(=O)(=O)c2ccc(F)cc2)C1 (stereo not given)
RP-LC retention time: 782 s

CCC(c1cccs1)N1C(=O)[C@H]2CN(S(=O)(=O)Cc3ccccc3F)C[C@H]2C1=O (stereo not given in full)
RP-LC retention time: 1000 s

Cc1ccc(/C=C/c2onc(C)c2S(=O)(=O)N2CCC(C(=O)NCC3CCCO3)CC2)cc1 (stereo not given)
RP-LC retention time: 828 s
